These results are taken from patent US9706777B2.

The experiment deals with Alternaria solani. Kind of experiment: Alternaria test (tomatoes)/preventive. The conditions noted are these: 100 ppm a.i.; preventive spray on young tomato plants; evaluated 3 days after inoculation; 0% = untreated control, 100% = no disease.

Method: The degree of efficacy, expressed in % is denoted.
In this case, the efficacy which was actually observed must be greater than the value for the expected efficacy (E) calculated from the abovementioned formula.
After the spray coating has dried on, the plants are inoculated with an aqueous spore suspension of Alternaria solani. The plants are then placed in an incubation cabinet at approximately 20° C. and a relative atmospheric humidity of 100%.
The test is evaluated 3 days after the inoculation.

In the case of `C#CCOc1ccc(CCNC(=O)C(OCC#C)c2ccc(Cl)cc2)cc1OC` (stereo not shown) [F206 mandipropamid, mandipropamid], the “Efficacy in % found” value turned out to be 0%.
